Results published in BigSolDB 2.1.

O=[N+]([O-])c1cn[nH]c1[N+](=O)[O-]
solubility (mole fraction)
Conditions | 283.15 K | 288.15 K | 293.15 K | 298.15 K | 303.15 K | 308.15 K | 313.15 K | 318.15 K | 323.15 K
in 2-butanone | 0.429 | 0.45 | 0.476 | 0.498 | 0.525 | 0.554 | 0.578 | 0.602 | 0.645
in THF | 0.51 | 0.525 | 0.598 | 0.631 | 0.684 | 0.735 | 0.792 | 0.837 | 0.886
in acetonitrile | 0.0745 | 0.0772 | 0.085 | 0.0912 | 0.0968 | 0.105 | 0.11 | 0.12 | 0.133
in chloroform | 0.00071 | 0.00094 | 0.00113 | 0.00152 | 0.00211 | 0.00277 | 0.0035 | 0.00476 | 0.00693
in epichlorohydrin | 0.0361 | 0.0395 | 0.0422 | 0.0467 | 0.0498 | 0.0536 | 0.0582 | 0.0634 | 0.0715
in ethyl acetate | 0.0671 | 0.0791 | 0.0913 | 0.103 | 0.125 | 0.146 | 0.163 | 0.193 | 0.224
in isobutanol | 0.234 | 0.264 | 0.265 | 0.329 | 0.355 | 0.391 | 0.438 | 0.486 | 0.539
in isopentanol | 0.228 | 0.258 | 0.29 | 0.315 | 0.351 | 0.376 | 0.408 | 0.46 | 0.508
in n-pentanol | 0.266 | 0.315 | 0.365 | 0.412 | 0.465 | 0.513 | 0.552 | 0.631 | 0.679
in n-propanol | 0.317 | 0.361 | 0.412 | 0.468 | 0.516 | 0.567 | 0.612 | 0.7 | 0.803
in water | 0.002 | 0.0032 | 0.00414 | 0.00529 | 0.00738 | 0.00924 | 0.0111 | 0.0136 | 0.0169
